EC50 data for 38 compounds are collected here from patent publication US12552772B2, “2-pyrazole anilines and related analogs for inhibiting YAP/TAZ-TEAD” (KATHOLIEKE UNIVERSITEIT LEUVEN, priority 2021, dated 2026).

The subject of this assay is YAP/TAZ-TEAD transcription. In words: Reporter gene assay for measuring the inhibition of YAP/TAZ-TEAD transcription (TEAD-responsive element luciferase reporter in Hek293T cells). To be noted: Homo sapiens, HEK-293T, 24 hours incubation. Format: cell-based. Here is the method:
Hek293T cells are cultured in DMEM supplemented with 10% fetal bovine serum, Sodium pyruvate, Sodium bicarbonate, L-glutamine. The cells are harvested and transiently transfected with TEAD-responsive element luciferase reporter. Transfected cells are plated in 384-wells plate containing pre-diluted compounds. After 24 hours incubation at 37° C./5% CO2, assay plates were cooled down to RT and levelled to an equal volume per well, prior to the addition of 25 uL luciferase substrate SteadyLite (Perkin Elmer)/well. The plate was shaken for 10 min at 600 rpm, centrifuged for 1 min at 500 rpm and measured with an Envision reader (PerkinElmer). The amount of relative light units produced by the TEAD reporter is used to calculated percent of inhibition.
The percent of reporter inhibition was calculated in the presence of a positive control inhibitor (100% inhibition) versus a condition with the presence of the vehicle basal activity of the reporter (0% inhibition). The ability of a test compound to inhibit this activity was determined as: Percentage inhibition=[1−((RLU determined in the presence of vehicle−RLU determined for sample with test compound present) divided by (RLU determined in the presence of vehicle−RLU determined for sample with positive control inhibitor))]*100
The activities of the example compounds tested are depicted in the table below. The activity ranges A, B and C refer to EC50 values in the reporter gene assay as described as follows: “A”: EC50<1 μM; “B”: 1 μM s EC50≤20 μM and “C”: EC50>20 μM, NT=not tested.
A general note: In a reporter assay the amount or activity of a reporter protein is the signal.

Take `c1ccc(-c2cccc(-c3ccn(CCc4cccnc4)n3)c2)cc1` [compound 023]: the EC50 – broadly, the concentration that produces a half-maximal response – fell in the range of 1 to 20 µM.

Consider `Cn1ccc(Cn2ccc(-c3cccc(-c4ccccc4)c3)n2)cc1=O` [compound 024, 4-((3-([1,1′-biphenyl]-3-yl)-1H-pyrazol-1-yl)methyl)-1-methylpyridin-2(1H)-one], for which the EC50 lay in the range of 1 to 20 µM.

As for `c1ccc(-c2cccc(-c3ccn(CCN4CCOCC4)n3)c2)cc1` [compound 025, 4-(2-(3-([1,1′-biphenyl]-3-yl)-1H-pyrazol-1-yl)ethyl)morpholine], the EC50 is 1 to 20 µM.

In the case of `c1ccc(-c2cccc(-c3ccn(CC4CCOCC4)n3)c2)cc1` [compound 026, 3-([1,1′-biphenyl]-3-yl)-1-((tetrahydro-2H-pyran-4-yl)methyl)-1H-pyrazole], the EC50 was over 20 µM.

As to `N#Cc1ccc(Cn2ccc(-c3cccc(-c4ccccc4)c3)n2)cn1` [compound 027, 5-((3-([1,1′-biphenyl]-3-yl)-1H-pyrazol-1-yl)methyl)picolinonitrile], the 50% effective concentration (EC50) was 1 to 20 µM.

`NC(=O)c1ccc(Cn2ccc(-c3cccc(-c4ccccc4)c3)n2)cn1` [compound 028, 5-((3-([1,1′-biphenyl]-3-yl)-1H-pyrazol-1-yl)methyl)picolinamide]: the EC50 lay in the range of 1 to 20 µM.

`NCc1ccc(Cn2ccc(-c3cccc(-c4ccccc4)c3)n2)cn1` [compound 029, (5-((3-([1,1′-biphenyl]-3-yl)-1H-pyrazol-1-yl)methyl)pyridin-2-yl)methanamine]: the EC50 is 1 to 20 µM.

In turn, `c1ccc(-c2cccc(-c3ccn(CC4CCNCC4)n3)c2)cc1` [compound 030, 4-((3-([1,1′-biphenyl]-3-yl)-1H-pyrazol-1-yl)methyl)piperidine] had an EC50 of 1 to 20 µM.

`CC(=O)N1CCC(Cn2ccc(-c3cccc(-c4ccccc4)c3)n2)CC1` [compound 031, 1-(4-((3-([1,1′-biphenyl]-3-yl)-1H-pyrazol-1-yl)methyl)piperidin-1-yl)ethan-1-one] registered an EC50 of 1 to 20 µM.

In turn, `CN1CCC(Cn2ccc(-c3cccc(-c4ccccc4)c3)n2)CC1` [compound 032, 4-((3-([1,1′-biphenyl]-3-yl)-1H-pyrazol-1-yl)methyl)-1-methylpiperidine] had an EC50 of 1 to 20 µM.

`C=Cc1ccc(Cn2ccc(-c3cccc(-c4ccccc4)c3)n2)cn1` [compound 033, 5-((3-([1,1′-biphenyl]-3-yl)-1H-pyrazol-1-yl)methyl)-2-vinylpyridine] came in with an EC50 of 1 to 20 µM.

For the compound `Nc1ccc(Cn2ccc(-c3cccc(-c4ccccc4)c3)n2)cn1` [compound 034, 5-((3-([1,1′-biphenyl]-3-yl)-1H-pyrazol-1-yl)methyl)pyridin-2-amine], the EC50 was over 20 µM.

Take `C=Cc1cc(Cn2ccc(-c3cccc(-c4ccccc4)c3)n2)ccn1` [compound 035, 4-((3-([1,1′-biphenyl]-3-yl)-1H-pyrazol-1-yl)methyl)-2-vinylpyridine]: the EC50 was in the range of 1 to 20 µM.

On to `CNc1cc(Cn2ccc(-c3cccc(-c4ccccc4)c3)n2)ccn1` [compound 036, 4-((3-([1,1′-biphenyl]-3-yl)-1H-pyrazol-1-yl)methyl)-N-methylpyridin-2-amine], for which the half-maximal effective concentration (EC50) was 1 to 20 µM.

Take `C=CC(=O)Nc1ccc(Cn2ccc(-c3cccc(-c4ccccc4)c3)n2)cn1` [compound 037, N-(5-((3-([1,1′-biphenyl]-3-yl)-1H-pyrazol-1-yl)methyl)pyridin-2-yl)acrylamide]: the EC50 lay within 1 to 20 µM.

Regarding `O=C1CCN1c1ccc(Cn2ccc(-c3cccc(-c4ccccc4)c3)n2)cn1` [compound 038, 1-(5-((3-([1,1′-biphenyl]-3-yl)-1H-pyrazol-1-yl)methyl)pyridin-2-yl)azetidin-2-one], the EC50 was over 20 µM.

Take `CCC(=O)Nc1ccc(Cn2ccc(-c3cccc(-c4ccccc4)c3)n2)cn1` [compound 039, N-(5-((3-([1,1′-biphenyl]-3-yl)-1H-pyrazol-1-yl)methyl)pyridin-2-yl)propionamide]: the EC50 fell in the range of 1 to 20 µM.

`O=C(O)c1cncc(Cn2ccc(-c3cccc(-c4ccccc4)c3)n2)c1` [compound 040, 5-((3-([1,1′-biphenyl]-3-yl)-1H-pyrazol-1-yl)methyl)nicotinic acid] showed a half-maximal effective concentration (EC50) of over 20 µM.

As for `NC(=O)c1cncc(Cn2ccc(-c3cccc(-c4ccccc4)c3)n2)c1` [compound 041, 5-((3-([1,1′-biphenyl]-3-yl)-1H-pyrazol-1-yl)methyl)nicotinamide], the EC50 was 1 to 20 µM.

The compound `O=C(O)c1ccncc1Cn1ccc(-c2cccc(-c3ccccc3)c2)n1` [compound 042, 3-((3-([1,1′-biphenyl]-3-yl)-1H-pyrazol-1-yl)methyl)isonicotinic acid] returned an EC50 of over 20 µM.

`NC(=O)c1ccncc1Cn1ccc(-c2cccc(-c3ccccc3)c2)n1` [compound 043, 3-((3-([1,1′-biphenyl]-3-yl)-1H-pyrazol-1-yl)methyl)isonicotinamide] yielded an EC50 of 1 to 20 µM.

Regarding `c1ccc(Nc2cccc(-c3ccn(Cc4ccccn4)n3)c2)cc1` [compound 044, N-phenyl-3-(1-(pyridin-2-ylmethyl)-1H-pyrazol-3-yl) aniline], the EC50 is 1 to 20 µM.

For `c1ccc(Nc2cccc(-c3ccn(Cc4cccnc4)n3)c2)cc1` [compound 045, N-phenyl-3-(1-(pyridin-3-ylmethyl)-1H-pyrazol-3-yl)aniline], the EC50 lay within 1 to 20 µM.

In turn, `c1ccc(Nc2cccc(-c3ccn(CCc4cccnc4)n3)c2)cc1` [compound 046, N-phenyl-3-(1-(2-(pyridin-3-yl)ethyl)-1H-pyrazol-3-yl)aniline] returned a concentration giving a half-maximal response (EC50) of 1 to 20 µM.

Regarding `c1ccc(-c2cccc(-c3nnn(Cc4cccnc4)n3)c2)cc1` [compound 047, 3-((5-([1,1′-biphenyl]-3-yl)-2H-tetrazol-2-yl)methyl)pyridine], the half-maximal effective concentration (EC50) was 1 to 20 µM.

Take `O=C(Cc1cccnc1)Nc1cccc(-c2ccccc2)c1` [compound 048, N—([1,1′-biphenyl]-3-yl)-2-(pyridin-3-yl)acetamide]: the concentration giving a half-maximal response (EC50) was 1 to 20 µM.

As to `O=S(=O)(F)CCNc1ccc(-c2ccccc2)cc1-c1ccn(Cc2cccnc2)n1` [compound 049, 2-((3-(1-(pyridin-3-ylmethyl)-1H-pyrazol-3-yl)-[1,1′-biphenyl]-4-yl)amino)ethane-1-sulfonyl fluoride], the EC50 is 1 to 20 µM.

In the case of `CNS(=O)(=O)CCNc1ccc(-c2ccccc2)cc1-c1ccn(Cc2cccnc2)n1` [compound 050, N-methyl-2-((3-(1-(pyridin-3-ylmethyl)-1H-pyrazol-3-yl)-[1,1′-biphenyl]-4-yl)amino)ethane-1-sulfonamide], the EC50 was under 1 µM.

As to `O=S1(=O)CCN(c2ccc(-c3ccccc3)cc2-c2ccn(Cc3cccnc3)n2)CC1` [compound 051, 4-(3-(1-(pyridin-3-ylmethyl)-1H-pyrazol-3-yl)-[1,1′-biphenyl]-4-yl)thiomorpholine 1,1-dioxide], the EC50 was over 20 µM.

Turning to `CN(C)S(=O)(=O)CCNc1ccc(-c2ccccc2)cc1-c1ccn(Cc2cccnc2)n1` [compound 053, N,N-dimethyl-2-((3-(1-(pyridin-3-ylmethyl)-1H-pyrazol-3-yl)-[1,1′-biphenyl]-4-yl)amino)ethane-1-sulfonamide], the EC50 was under 1 µM.

As for `O=S1(=O)CCN(c2cc(-c3ccccc3)cc(-c3ccn(Cc4cccnc4)n3)c2)CC1` [compound 055, 4-(5-(1-(pyridin-3-ylmethyl)-1H-pyrazol-3-yl)-[1,1′-biphenyl]-3-yl)thiomorpholine 1,1-dioxide], the EC50 lay in the range of 1 to 20 µM.

As to `CNS(=O)(=O)CCNc1ccc(-c2ccccc2)cc1-c1ccn(C)n1` [compound 056, N-methyl-2-((3-(1-methyl-1H-pyrazol-3-yl)-[1,1′-biphenyl]-4-yl)amino)ethane-1-sulfonamide], the EC50 is under 1 µM.

On to `Cn1ccc(-c2cc(-c3ccccc3)ccc2NCCS(=O)(=O)O)n1` [compound 057, 2-((3-(1-methyl-1H-pyrazol-3-yl)-[1,1′-biphenyl]-4-yl)amino)ethane-1-sulfonic acid], for which the EC50 was over 20 µM.

Turning to `Cn1ccc(-c2cc(-c3ccccc3)ccc2NCCS(N)(=O)=O)n1` [compound 058, 2-((3-(1-methyl-1H-pyrazol-3-yl)-[1,1′-biphenyl]-4-yl)amino)ethane-1-sulfonamide], the EC50 is under 1 µM.

In the case of `O=C(O)CCNc1ccc(-c2ccccc2)cc1-c1ccn(Cc2cccnc2)n1` [compound 059, 3-((3-(1-(pyridin-3-ylmethyl)-1H-pyrazol-3-yl)-[1,1′-biphenyl]-4-yl)amino)propanoic acid], the 50% effective concentration (EC50) is under 1 µM.

Compound `CNC(=O)CCNc1ccc(-c2ccccc2)cc1-c1ccn(Cc2cccnc2)n1` [compound 060, N-methyl-3-((3-(1-(pyridin-3-ylmethyl)-1H-pyrazol-3-yl)-[1,1′-biphenyl]-4-yl)amino)propanamide] registered an EC50 of under 1 µM.

Consider `O=C(O)CCNc1cc(-c2ccccc2)cc(-c2ccn(Cc3cccnc3)n2)c1` [compound 061, 3-((5-(1-(pyridin-3-ylmethyl)-1H-pyrazol-3-yl)-[1,1′-biphenyl]-3-yl)amino)propanoic acid], for which the EC50 is over 20 µM.

With `CNC(=O)CCNc1cc(-c2ccccc2)cc(-c2ccn(Cc3cccnc3)n2)c1` [compound 062, N-methyl-3-((5-(1-(pyridin-3-ylmethyl)-1H-pyrazol-3-yl)-[1,1′-biphenyl]-3-yl)amino)propanamide], the 50% effective concentration (EC50) lay within 1 to 20 µM.
